Source: US11591604B2, “Gene expression in Bacteroides” (Massachusetts Institute of Technology, priority 2015, dated 2023)

System: NanoLuc
Test: NanoLuc luciferase reporter expression from constitutive promoters and RBSs integrated with pNBU2
Format: cell-based, B. thetaiotaomicron
Details: RBS combined with promoter PBT1311, NanoLuc reporter, three biological replicates

Substance	Average Luminescence (RLU/CFU)
C7: RBS, SEQ ID NO: 20 (DNA TCCCGCATTTTAAAATAAAATAAATTATTAATTTACTTAAACGAAT; chemistry not fully specified)	0.03249
C8: RBS, SEQ ID NO: 21 (DNA TCCCGCATTTTAAAATAAAATAAATTATTTATCGAATTAAACGAAT; chemistry not fully specified)	0.03132
C9: RBS, SEQ ID NO: 23 (DNA TCCCGCATTTTAAAATAAAATAAATTATTGCTTTAATTAAACGAAT; chemistry not fully specified)	0.02988
C10: RBS, SEQ ID NO: 31 (DNA TCCCGCATTTTAAAATAAAATAAATTATTATTTTAATTAAACGAAT; chemistry not fully specified)	0.02583
C11: RBS, SEQ ID NO: 36 (DNA TCCCGCATTTTAAAATAAAATAAATTATTTTTTTACTTAAACGAAT; chemistry not fully specified)	0.02223
C12: RBS, SEQ ID NO: 37 (DNA TCCCGCATTTTAAAATAAAATAAATTATTAGTTTAGTTAAACGAAT; chemistry not fully specified)	0.02151
C13: RBS, SEQ ID NO: 38 (DNA TCCCGCATTTTAAAATAAAATAAATTATTAATTTAATTAAACGAAT; chemistry not fully specified)	0.02149
C14: RBS, SEQ ID NO: 40 (DNA TCCCGCATTTTAAAATAAAATAAATTATTTCTTTACTTAAACGAAT; chemistry not fully specified)	0.02123
C15: RBS, SEQ ID NO: 41 (DNA TCCCGCATTTTAAAATAAAATAAATTATTTCTTTAATTAAACGAAT; chemistry not fully specified)	0.02056
C16: RBS, SEQ ID NO: 43 (DNA TCCCGCATTTTAAAATAAAATAAATTATTAGTTTAATTAAACGAAT; chemistry not fully specified)	0.0203
C17: RBS, SEQ ID NO: 45 (DNA TCCCGCATTTTAAAATAAAATAAATTATTAGTTTATTTAAACGAAT; chemistry not fully specified)	0.01871
C18: RBS, SEQ ID NO: 47 (DNA TCCCGCATTTTAAAATAAAATAAATTATTGTTTTACTTAAACGAAT; chemistry not fully specified)	0.01851
C19: RBS, SEQ ID NO: 48 (DNA TCCCGCATTTTAAAATAAAATAAATTATTGCTTTAGTTAAACGAAT; chemistry not fully specified)	0.01835
C20: RBS, SEQ ID NO: 51 (DNA TCCCGCATTTTAAAATAAAATAAATTATTGTTTTAGTTAAACGAAT; chemistry not fully specified)	0.01758
C21: RBS, SEQ ID NO: 54 (DNA TCCCGCATTTTAAAATAAAATAAATTATTGGTTTAATTAAACGAAT; chemistry not fully specified)	0.01602
C22: RBS, SEQ ID NO: 57 (DNA TCCCGCATTTTAAAATAAAATAAATTATTGTTTTAATTAAACGAAT; chemistry not fully specified)	0.01508
C23: RBS, SEQ ID NO: 60 (DNA TCCCGCATTTTAAAATAAAATAAATTATTGATTTACTTAAACGAAT; chemistry not fully specified)	0.01469
C24: RBS, SEQ ID NO: 67 (DNA TCCCGCATTTTAAAATAAAATAAATTATTTCTTTATTTAAACGAAT; chemistry not fully specified)	0.01287
C25: RBS, SEQ ID NO: 72 (DNA TCCCGCATTTTAAAATAAAATAAATTATTATTTTACTTAAACGAAT; chemistry not fully specified)	0.01148
C26: RBS, SEQ ID NO: 75 (DNA TCCCGCATTTTAAAATAAAATAAATTATTTATTTACTTAAACGAAT; chemistry not fully specified)	0.009775
C27: RBS, SEQ ID NO: 76 (DNA TCCCGCATTTTAAAATAAAATAAATTATTTTTTTAGTTAAACGAAT; chemistry not fully specified)	0.009752
C28: RBS, SEQ ID NO: 81 (DNA TCCCGCATTTTAAAATAAAATAAATTATTCATTTATTTAAACGAAT; chemistry not fully specified)	0.009278
C29: RBS, SEQ ID NO: 86 (DNA TCCCGCATTTTAAAATAAAATAAATTATTTTTTTATTTAAACGAAT; chemistry not fully specified)	0.008233
C30: RBS, SEQ ID NO: 88 (DNA TCCCGCATTTTAAAATAAAATAAATTATTTATTTATTTAAACGAAT; chemistry not fully specified)	0.008085

Substance	Average Luminescence (RLU/CFU)
C31: RBS, SEQ ID NO: 90 (DNA TCCCGCATTTTAAAATAAAATAAATTATTTATTTACTTAAACGAAT; chemistry not fully specified)	0.007861
C32: RBS, SEQ ID NO: 91 (DNA TCCCGCATTTTAAAATAAAATAAATTATTGCTTTATTTAAACGAAT; chemistry not fully specified)	0.007717
C33: RBS, SEQ ID NO: 93 (DNA TCCCGCATTTTAAAATAAAATAAATTATTAGTTTACTTAAACGAAT; chemistry not fully specified)	0.006912
C34: RBS, SEQ ID NO: 96 (DNA TCCCGCATTTTAAAATAAAATAAATTATTCTTTTACTTAAACGAAT; chemistry not fully specified)	0.006727
C35: RBS, SEQ ID NO: 99 (DNA TCCCGCATTTTAAAATAAAATAAATTATTCCTTTAATTAAACGAAT; chemistry not fully specified)	0.005815
C36: RBS, SEQ ID NO: 100 (DNA TCCCGCATTTTAAAATAAAATAAATTATTACTTTATTTAAACGAAT; chemistry not fully specified)	0.005692
C37: RBS, SEQ ID NO: 102 (DNA TCCCGCATTTTAAAATAAAATAAATTATTGGTTTAGTTAAACGAAT; chemistry not fully specified)	0.005598
C38: RBS, SEQ ID NO: 108 (DNA TCCCGCATTTTAAAATAAAATAAATTATTCTTTTATTTAAACGAAT; chemistry not fully specified)	0.004774
C39: RBS, SEQ ID NO: 109 (DNA TCCCGCATTTTAAAATAAAATAAATTATTCCTTTATTTAAACGAAT; chemistry not fully specified)	0.004534
C40: RBS, SEQ ID NO: 115 (DNA TCCCGCATTTTAAAATAAAATAAATTATTCCTTTACTTAAACGAAT; chemistry not fully specified)	0.003759
C41: RBS, SEQ ID NO: 117 (DNA TCCCGCATTTTAAAATAAAATAAATTATTGGTTTATTTAAACGAAT; chemistry not fully specified)	0.003107
C42: RBS, SEQ ID NO: 119 (DNA TCCCGCATTTTAAAATAAAATAAATTATTCTTTTAGTTAAACGAAT; chemistry not fully specified)	0.002801
C43: RBS, SEQ ID NO: 120 (DNA TCCCGCATTTTAAAATAAAATAAATTATTTCTTTAGTTAAACGAAT; chemistry not fully specified)	0.00264
C44: RBS, SEQ ID NO: 122 (DNA TCCCGCATTTTAAAATAAAATAAATTATTTGTTTACTTAAACGAAT; chemistry not fully specified)	0.00249
C45: RBS, SEQ ID NO: 124 (DNA TCCCGCATTTTAAAATAAAATAAATTATTCATTTAGTTAAACGAAT; chemistry not fully specified)	0.0024
C46: RBS, SEQ ID NO: 125 (DNA TCCCGCATTTTAAAATAAAATAAATTATTTGTTTAGTTAAACGAAT; chemistry not fully specified)	0.001945
C47: RBS, SEQ ID NO: 126 (DNA TCCCGCATTTTAAAATAAAATAAATTATTTGTTTAATTAAACGAAT; chemistry not fully specified)	0.00189
C48: RBS, SEQ ID NO: 128 (DNA TCCCGCATTTTAAAATAAAATAAATTATTCCTTTAGTTAAACGAAT; chemistry not fully specified)	0.001758
C49: RBS, SEQ ID NO: 129 (DNA TCCCGCATTTTAAAATAAAATAAATTATTGTTTTATTTAAACGAAT; chemistry not fully specified)	0.001598
C50: RBS, SEQ ID NO: 132 (DNA TCCCGCATTTTAAAATAAAATAAATTATTTGTTTATTTAAACGAAT; chemistry not fully specified)	0.001261
C51: RBS, SEQ ID NO: 136 (DNA TCCCGCATTTTAAAATAAAATAAATTATTATTTTATTTAAACGAAT; chemistry not fully specified)	0.0006273
C52: RBS, SEQ ID NO: 138 (DNA TCCCGCATTTTAAAATAAAATAAATTATTGGTTTACTTAAACGAAT; chemistry not fully specified)	0.000163
C53: RBS, SEQ ID NO: 140 (DNA TCCCGCATTTTAAAATAAAATAAATTATTCGTTTAATTAAACGAAT; chemistry not fully specified)	7.299E-05

Same assay, conditions: set of 8 RBSs, under control of PBT1311, NanoLuc reporter

Substance	Expression Level (RLU/CFU)
C33: RBS, SEQ ID NO: 93 (DNA TCCCGCATTTTAAAATAAAATAAATTATTAGTTTACTTAAACGAAT; chemistry not fully specified)	6.91E-03
C51: RBS, SEQ ID NO: 136 (DNA TCCCGCATTTTAAAATAAAATAAATTATTATTTTATTTAAACGAAT; chemistry not fully specified)	6.27E-04
C52: RBS, SEQ ID NO: 138 (DNA TCCCGCATTTTAAAATAAAATAAATTATTGGTTTACTTAAACGAAT; chemistry not fully specified)	1.63E-04
C53: RBS, SEQ ID NO: 140 (DNA TCCCGCATTTTAAAATAAAATAAATTATTCGTTTAATTAAACGAAT; chemistry not fully specified)	7.30E-05
